Results as given in patent publication US20050239804A1, “Method for improved chemical synthesis of guanidinium alkaloids” (The Regents of the University of California, priority 1999, published 2005).
pIC50: −log10 of the molar value.

Experiments:
60 tumor cell lines = experiment: NCI DTP Human Tumor Cell Line Screen (60 tumor cell lines, Sulforhodamine B assay); assay type: cell-based; details: 48 h exposure, five 10-fold dilutions
Text: This example describes the in vitro screening of 60 tumor cell lines against the compounds of the invention: ptilomycalin A, isocrambescidin 800 trihydrochloride, triacetylcrambescidin 800 chloride, crambescidin 657 hydrochloride, crambescidin 800 trihydrochloride, triacetylisocrambescidin 800 chloride, and 13-epiptilomycalin A to determine anti-tumor activity.
The screening methods utilized the National Cancer Institute (NCI) DTP Human Tumor Cell Line Screen protocol as described by Monks et al., J. Nat'l. Cancer Inst. 83:757-766 (1991); and Boyd In “Cancer Drug Discovery and Development, Vol; 2; Drug Development; Preclinical Screening, Clinical Trial and Approval, Humana Press, 1997, pp 23-43. The origins and processing of the cell lines used are described in Alley et al., Cancer Res., 1988, 48:589-601; Shoemaker et al., Prog. Clin. Biol. Res., 1988, 276:265-286; and Stinson et al., Proc. Am. Assoc. Cancer Res., 1989, 30:613.
In brief, in the screen protocol, cell suspensions were diluted depending on cell type and the expected target cell density (approximately 5000-40,000 cells per well) into a 96 well microtiter plate. Inoculates were preincubated for 24h at 37 °C for stabilization. Dilutions at twice the intended test concentrations were added at time zero in 100 μL aliquots to the microtiter plate wells. Test compounds were evaluated at five 10-fold dilutions. Routine test concentrations have the highest well concentration at 10E-4M, but for the standard agents, the highest well concentration used depended on the agent used. Incubations lasted 48 hours in 5% CO2 atmosphere and 100% humidity. The cells were assayed by Sulforhodomine B assay as described by Rubenstein et al., JNCI, 1990, 82:1113-1118 and Skehan et al., JNCI, 1990, 82: 1107-1112. Optical densities were read with a plate reader and the data processed using a microcomputer into special concentration parameters.
NCI renamed the IC50 value, the concentration that causes 50% growth inhibition the “GI50” value to emphasize the correction for the cell count at time zero; thus GI50 is the concentration of test drug where 100×(T−T0)/(C−T0)=50 (Boyd et al., In Cytotoxic Anticancer Drugs: Models and Concepts for Drug Discovery and Development, Vieriote. et al., Eds., Kluwer Academic, Hingham, Mass., 1992, pp 11-34; and Monks et al., JNCI, 1991, 83, 757-766. The optical density of the test well after a 48 hr period of exposure to the test compound is “T”, the optical density at time zero is TO and the control optical density is “C.” The “50” is called the GI50PRCNT, a T/C-like parameter that can have values from +100 to −100. The GI50 also measures the growth inhibitory power of the test compound. The TGI is the concentration of test drug where 100×(T−T0)/(C−T0)=0. Thus, the TGI signifies a cytostatic effect. The LC50 which signifies a cytotoxic effect, is the concentration of the test compound where 100×(T−T0)/T0=−50. The control optical density is not used in the calculation of LC50.
These concentration parameters are interpolated values. The concentrations giving G150PRCNT values above and below the reference values (e.g. 50 for G150) are used to make interpolations on the concentration axis. […] For mean graph purposes, the value assumed for the G150 in such a case is the highest concentration tested (HICONC). […] In this case, the lowest concentration tested is used for the G150. Corresponding approximations are made for the TGI and for the LC50.
The results of the tumor cell screening are shown in the mean graphs of 56-62. […]

L1210 = details: cited from earlier work
brain Na+, K+-ATPase = details: read-out: inhibition of brain Na+, K+-ATPase (IC50); cited from earlier work
[1] = tested on: Herpes simplex virus, type 1 (HSV-1); details: at a concentration of 0.2 μg/mL; cited from earlier work
P388 = details: cited from earlier work
[2] = target: T1, Ca2+-ATPase from skeletal sarcoplasmic reticulum (Homo sapiens, UniProt O14983); details: read-out: inhibition of Ca2+-ATPase from skeletal sarcoplasmic reticulum (IC50); cited from earlier work
T1 construct: from tissue; host or cells: skeletal muscle sarcoplasmic reticulum

Candida albicans = details: cited from earlier work

T1 sequence (O14983 whole entry): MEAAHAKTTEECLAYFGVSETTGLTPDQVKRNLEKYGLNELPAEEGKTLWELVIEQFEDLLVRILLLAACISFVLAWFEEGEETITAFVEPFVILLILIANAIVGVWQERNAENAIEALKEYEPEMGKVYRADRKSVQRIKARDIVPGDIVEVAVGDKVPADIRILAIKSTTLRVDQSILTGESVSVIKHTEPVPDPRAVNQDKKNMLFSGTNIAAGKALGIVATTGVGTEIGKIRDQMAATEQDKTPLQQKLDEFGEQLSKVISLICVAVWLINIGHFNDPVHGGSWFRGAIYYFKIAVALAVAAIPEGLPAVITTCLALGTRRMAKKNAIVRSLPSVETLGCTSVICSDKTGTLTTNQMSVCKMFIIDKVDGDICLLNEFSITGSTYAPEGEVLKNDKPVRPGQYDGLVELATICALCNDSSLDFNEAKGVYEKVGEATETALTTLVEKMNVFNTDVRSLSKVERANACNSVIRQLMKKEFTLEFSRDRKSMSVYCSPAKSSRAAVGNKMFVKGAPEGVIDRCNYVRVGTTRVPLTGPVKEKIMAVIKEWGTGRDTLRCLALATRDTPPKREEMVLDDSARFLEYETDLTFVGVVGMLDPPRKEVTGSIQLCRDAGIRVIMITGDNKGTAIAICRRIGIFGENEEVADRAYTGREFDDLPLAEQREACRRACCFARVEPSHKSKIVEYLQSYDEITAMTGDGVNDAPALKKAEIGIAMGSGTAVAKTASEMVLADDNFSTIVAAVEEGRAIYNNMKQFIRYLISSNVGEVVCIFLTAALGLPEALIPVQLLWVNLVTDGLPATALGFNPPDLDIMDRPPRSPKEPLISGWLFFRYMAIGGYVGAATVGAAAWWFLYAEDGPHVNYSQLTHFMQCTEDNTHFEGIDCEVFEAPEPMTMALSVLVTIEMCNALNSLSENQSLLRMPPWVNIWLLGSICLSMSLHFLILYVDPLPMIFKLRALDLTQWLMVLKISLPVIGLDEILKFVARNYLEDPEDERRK

Compound | effect on tumor cell lines in the NCI screen (mean graphs of GI50, TGI, LC50; summary in words) (60 tumor cell lines) | further results
Peracetyl-13,14,15-Isocrambescidin 800 Hydrochloride [triacetylisocrambescidin 800 chloride] | lesser effect | 
Peracetylcrambescidin 800 [triacetylcrambescidin 800 chloride] | certain cancer cell lines are sensitive | 
13,14,15-Isocrambescidin 800 Trihydrochloride | lesser effect | cytotoxicity to L-1210 cells relative to other crambescidins (L1210; L-1210 cells, in words): less cytotoxic to L-1210 cells than other crambescidins
CCC1C=CCCC2(CC3CCC4C(C(=O)OCCCCCCCCCCCCCCCC(=O)N(CCCN)CCCCN)C5(CCCC(C)O5)NC(=N2)N34)O1 (centres unmarked) [Ptilomycalin A] | certain cancer cell lines are sensitive | pIC50 (brain Na+, K+-ATPase): 5.70; cytotoxicity against L1210 (IC50) (L1210; L1210): 0.4 µg/mL; antiviral activity against Herpes simplex virus, type 1 (HSV-1) [1]: considerable antiviral activity; cytotoxicity against P388 (IC50) (P388): 0.1 µg/mL; pIC50 [2]: 5.00; antifungal activity against Candida albicans (MIC) (Candida albicans): 0.8 µg/mL
CC[C@H]1C=CCC[C@@]2(C[C@@H]3CC[C@@H]4[C@H](C(=O)OCCCCCCCCCCCCCCCC(=O)N(CCCN)C[C@@H](O)CCN)[C@]5(CCC[C@@H](C)O5)NC(=N2)N34)O1.Cl.Cl.Cl [crambescidin 800 trihydrochloride, Crambescidin 800 Trihydrochloride] | certain cancer cell lines are sensitive | 
13-epiptilomycalin A | certain cancer cell lines are sensitive | 
crambescidin 657 hydrochloride | certain cancer cell lines are sensitive | 
